Test results published in patent US20210038577A1, “THIOREDOXIN REDUCTASE INHIBITORS FOR USE IN THE TREATMENT OF CANCER” (Cinda Pharma AB, priority 2018, published 2021).
Values joined by “and” are separate entries in the source; they are usually repeats but may differ in a detail not shown here. Equal entries are not always repeated.

Key:
[1] = test system: TM00098 patient-derived xenografts (TNBC); test: TM00098 patient derived TNBC xenografts in humanized Hu-CD34-NSG mice, tumor growth; type: in vivo
Source text: FIG. 11: Primary tumor growth of TM00098 patient derived triple-negative breast cancer xenografts in humanized immunocompetent NSG mice (Hu-CD34-NSG) treated with OT-1096 or vehicle control. A) Humanized NSG mice (Hu-CD34-NSG) engrafted with CD34+ cells from donor 5243 and subsequently implanted with TNBC PDX TM00098. B) Humanized NSG mice (Hu-CD34-NSG) engrafted with CD34+ cells from donor 5252 and subsequently implanted with TNBC PDX TM00098. Female NSG mice were implanted with human CD34+ hematopoietic stem cells from multiple donors and the level of human CD45+ cells were measured in the peripheral blood 12 weeks post engraftment. Mice with >25% human CD45+ cells in the peripheral blood were determined to have a humanized immune system (Hu-CD34-NSG™) mice and were enrolled into the study. […] Tumor volume was measured using a digital caliper two times a week for the duration of the study. […] Statistical significance (p<0.05) was determined using a Two-way repeated measures ANOVA with Sidak's multiple comparison test.
Athymic nude mice were inoculated orthotopically with 5×10^6 MDA-MB-231 breast cancer cells into the mammary fat pad, and randomized for treatment when tumors reached an average volume of 80-120 mm^3 (N=12 in each group). […] Xenograft tumor volume was assessed using caliper measurements for 25 days. […] Xenograft tumor volume was assessed using caliper measurements for 25 days. […]

4T1 tumors = test: Intratumoral immune cell populations in engrafted 4T1 tumors in BALB/c mice (FACS); type: in vivo; settings: 1 mg/kg intratumorally bid for 5 days, day 6
Experimental: Intratumoral immune cell populations within engrafted 4T1 cells in BALB/c mice. 4T1 cells are a murine mammary carcinoma cell line. BALB/c mice are immunocompetent. 1×10^6 4T1 tumor cells in 0% Matrigel were implanted orthotopically into the mammary fat pad. Enrollment of the mice into the treatment arms commenced when the tumors reached an average volume between 175-200 mm^3. […] Tumor volumes were measured using a digital caliper on day 1, 3, and 6 of the study. On day 6 mice were euthanized and tumors were resected for FACs analysis. Populations of murine immune cells including CD45+, CD4+, CD8+, and Tregs were analyzed. CD45+ positive cells were analyzed as the percentage of live cells. CD4+, CD8+, and Tregs cells were analyzed as percentage of CD45+ positive cells.

Row | SMILES | % TGI ([1]; 10 mg/kg three times a week intravenously, human immune cells from two separate donors, caliper) | mean tumor volume compared to vehicle ([1]; day 24 and 28 for CD34+ donor 5243, day 31 for donor 5252, p<0.05) | CD8+ levels in tumors relative to no treatment controls (4T1 tumors) | ratio of CD8+ cells to Treg cells in tumours (4T1 tumors)
1 | CCCCCCCCS(=O)(=O)c1nc(OC)ccc1[N+](=O)[O-] [OT-1096, 6-methoxy-3-nitro-2-(octylsulfonyl)pyridine] | 45% and 55% | statistically significant | significantly increased | increases
2 | NC(=O)c1ccc(I)c([N+](=O)[O-])c1 [Iniparib, 4-Iodo-3-nitrobenzamide, reference compound] |  |  | significantly increased | increases
